# Measured values from patent US12201632B2, “Levoketoconazole for treatment of congenital adrenal hyperplasia and primary aldosteronism” (Strongbridge Dublin Limited, priority 2018, dated 2025).
# Assays:
# [1] = tested on: human primary adrenocortical cultures; test: Cortisol production in human primary adrenocortical cultures, comparison across cultures; format: cell-based
# Description: (§1) To obtain primary cultures, adrenal specimens (adrenocortical adenomas, adrenal hyperplasias and adrenocortical carcinomas) were collected after adrenalectomy at the department of Surgery, Erasmus University Medical Center, Rotterdam, the Netherlands, between April 2016 and May 2018. The study was conducted under guidelines that have been approved by the Medical Ethics Committee of the Erasmus Medical Center and informed consent was obtained from all patients. Immediately after surgery, specimens were minced into small pieces of 2-3 mm^3, washed in culture medium and centrifuged for 5 minutes at 600 g. The tissue was stored overnight in culture medium at 4° C., where after the tissue was centrifuged again and the supernatant was removed. Fragments were dissociated using 10-25 ml collagenase type 1 (2 mg/ml: Sigma-Aldrich), followed by incubation at 37° C. for up to two hours. Ficoll (GE healthcare) density gradient separation was used once or twice as required in order to separate contaminating red blood cells from the tumor cells. Cell viability and cell amount were counted by trypan blue exclusion. Dissociated cells were plated at a density of 10^5 cells per well. ACTH-secreting corticotroph pituitary adenoma tissue from patients with Cushing's disease (n=2) was available after transsphenoidal surgery. Single-cell suspensions of the pituitary adenoma tissues were prepared as previously described in detail.
# (§2) Primary culture conditions for primary cultures were similar as described in the section ‘cell culture and compounds’, but with small adjustments: ACTH was used at a concentration of 85 pM (250 pg/mL), treatment was started 3-4 days after plating of the cells and cells were incubated for 3 days, and; for pituitary primary cultures, levoketoconazole and racemic ketoconazole were only tested at a concentration of 1 μM. Owing to a limited number of cells obtained from the specimens, not all experiments were carried out in every primary culture.
# (§3) Cortisol concentrations were measured in the supernatant using a chemiluminescence immunoassay system (Immulite 2000XPi; Siemens DPC Inc., Los Angeles, Calif., USA). In addition, we carried out multi-steroid analysis by liquid chromatography/mass spectrometry (LC/MS-MS) to accurately quantify androstenedione, corticosterone, cortisol, 11-deoxycortisol, DHEA, DHEAS, progesterone, 17-hydroxyprogesterone, and testosterone. Concentrations that were tested on the LC/MS-MS were closest to 50% inhibition or maximal inhibition of cortisol as determined by the immunoassay. Steroids were quantified with respect to a calibration series, with internal standards. Steroids were quantified on a Xevo TQS LC-MS/MS (Waters Chromatography).
# (§4) Statistical analysis was performed using Graphpad Prism 6.0 (Graphpad Software, San Diego, CA). Non-linear regression curve fitting program was used to calculate the half maximal inhibitory concentrations (IC50) on cortisol production. Effects of both compounds on the steroid profile were measured as absolute change compared to control and compared using the Student's t-test. When assessing differences between effects of both compounds, the percentage change was evaluated and compared in order to correct for differences in the vehicle treated control cells. Values of P<0.05 were considered statistically significant and data are presented as mean SEM.
# [2] = tested on: EAS associated adrenal hyperplasia no. 1 primary culture; test: Steroid profile by LC/MS-MS in EAS associated adrenal hyperplasia no. 1; format: cell-based, human; settings: for 11-DOC absolute change vs ACTH stimulation with vehicle / 11-DOC percentage change vs ACTH stimulation with vehicle / 17-OHP absolute change vs ACTH stimulation with vehicle / 17-OHP percentage change vs ACTH stimulation with vehicle / Androstenedione absolute change vs ACTH stimulation with vehicle / Androstenedione percentage change vs ACTH stimulation with vehicle / Corticosterone absolute change vs ACTH stimulation with vehicle / Corticosterone percentage change vs ACTH stimulation with vehicle / Cortisol absolute change vs ACTH stimulation with vehicle / Cortisol percentage change vs ACTH stimulation with vehicle / DHEA absolute change vs ACTH stimulation with vehicle / DHEAS absolute change vs ACTH stimulation with vehicle / Prog absolute change vs ACTH stimulation with vehicle / Prog percentage change vs ACTH stimulation with vehicle / Testosterone absolute change vs ACTH stimulation with vehicle / Testosterone percentage change vs ACTH stimulation with vehicle: EAS associated adrenal hyperplasia no. 1, ACTH; for 11-DOC absolute change vs ACTH stimulation with vehicle / 11-DOC percentage change vs ACTH stimulation with vehicle / 17-OHP absolute change vs ACTH stimulation with vehicle / 17-OHP percentage change vs ACTH stimulation with vehicle / Androstenedione absolute change vs ACTH stimulation with vehicle / Androstenedione percentage change vs ACTH stimulation with vehicle / Corticosterone absolute change vs ACTH stimulation with vehicle / Corticosterone percentage change vs ACTH stimulation with vehicle / Cortisol absolute change vs ACTH stimulation with vehicle / Cortisol percentage change vs ACTH stimulation with vehicle / DHEA absolute change vs ACTH stimulation with vehicle / DHEAS absolute change vs ACTH stimulation with vehicle / Prog absolute change vs ACTH stimulation with vehicle / Prog percentage change vs ACTH stimulation with vehicle / Testosterone absolute change vs ACTH stimulation with vehicle / Testosterone percentage change vs ACTH stimulation with vehicle / 11-DOC absolute change vs control / 11-DOC percentage change vs control / 17-OHP absolute change vs control / 17-OHP percentage change vs control / Androstenedione absolute change vs control / Androstenedione percentage change vs control / Corticosterone absolute change vs control / Corticosterone percentage change vs control / Cortisol absolute change vs control / Cortisol percentage change vs control / DHEA absolute change vs control / DHEAS absolute change vs control / Prog absolute change vs control / Prog percentage change vs control / Testosterone absolute change vs control / Testosterone percentage change vs control: 3 days; for 11-DOC absolute change vs control / 11-DOC percentage change vs control / 17-OHP absolute change vs control / 17-OHP percentage change vs control / Androstenedione absolute change vs control / Androstenedione percentage change vs control / Corticosterone absolute change vs control / Corticosterone percentage change vs control / Cortisol absolute change vs control / Cortisol percentage change vs control / DHEA absolute change vs control / DHEAS absolute change vs control / Prog absolute change vs control / Prog percentage change vs control / Testosterone absolute change vs control / Testosterone percentage change vs control: EAS associated adrenal hyperplasia no. 1, Basal
# Description: as §1, §2, §3, §4
# [3] = six of the ten conditions with direct comparison in the same patient
smiles,measurement,setting,value
"CC(=O)N1CCN(c2ccc(OCC3COC(Cn4ccnc4)(c4ccc(Cl)cc4Cl)O3)cc2)CC1 (racemic) [racemic ketoconazole, Ketoconazole]",mean difference in IC50 between both compounds,[1]; four remaining cultures,5%
same,range of difference in IC50 between both compounds,[1]; four remaining cultures,1-8%
same,mean increase IC50 compared to levoketoconazole,[1]; [3],52%
same,range of increase IC50 compared to levoketoconazole,[1]; [3],33-113%
same,11-DOC absolute change vs ACTH stimulation with vehicle,[2]; 0.05 μM,+76.63 nmol/l
same,11-DOC percentage change vs ACTH stimulation with vehicle,[2]; 0.05 μM,(+25%**)
same,17-OHP absolute change vs ACTH stimulation with vehicle,[2]; 0.05 μM,+8.133 nmol/l
same,17-OHP percentage change vs ACTH stimulation with vehicle,[2]; 0.05 μM,(+52%)
same,Androstenedione absolute change vs ACTH stimulation with vehicle,[2]; 0.05 μM,-7.475 nmol/L
same,Androstenedione percentage change vs ACTH stimulation with vehicle,[2]; 0.05 μM,(−39%)
same,Corticosterone absolute change vs ACTH stimulation with vehicle,[2]; 0.05 μM,+105.7 nmol/l
same,Corticosterone percentage change vs ACTH stimulation with vehicle,[2]; 0.05 μM,(+31%)
same,Cortisol absolute change vs ACTH stimulation with vehicle,[2]; 0.05 μM,-62.25 nmol/L
same,Cortisol percentage change vs ACTH stimulation with vehicle,[2]; 0.05 μM,−11%
same,DHEA absolute change vs ACTH stimulation with vehicle,[2]; 0.05 μM,<LLQ
same,DHEAS absolute change vs ACTH stimulation with vehicle,[2]; 0.05 μM,<LLQ
same,Prog absolute change vs ACTH stimulation with vehicle,[2]; 0.05 μM,+3.425 nmol/l
same,Prog percentage change vs ACTH stimulation with vehicle,[2]; 0.05 μM,+96%
same,Testosterone absolute change vs ACTH stimulation with vehicle,[2]; 0.05 μM,-0.1750 nmol/L
same,Testosterone percentage change vs ACTH stimulation with vehicle,[2]; 0.05 μM,(−28%)
same,Cortisol percentage change vs ACTH stimulation with vehicle,"[2]; 0.05 μM, listed as RK",(−11%*)
same,Prog percentage change vs ACTH stimulation with vehicle,"[2]; 0.05 μM, listed as RK",(+96%**)
same,11-DOC absolute change vs ACTH stimulation with vehicle,[2]; 5 μM,-402.7 nmol/L
same,11-DOC percentage change vs ACTH stimulation with vehicle,[2]; 5 μM,(−99%)
same,17-OHP absolute change vs ACTH stimulation with vehicle,[2]; 5 μM,-28.44 nmol/L
same,17-OHP percentage change vs ACTH stimulation with vehicle,[2]; 5 μM,(−90%)
same,Androstenedione absolute change vs ACTH stimulation with vehicle,[2]; 5 μM,-14.79 nmol/L
same,Androstenedione percentage change vs ACTH stimulation with vehicle,[2]; 5 μM,(−98%)
same,Corticosterone absolute change vs ACTH stimulation with vehicle,[2]; 5 μM,-397.6 nmol/L
same,Corticosterone percentage change vs ACTH stimulation with vehicle,[2]; 5 μM,(−100%)
same,Cortisol absolute change vs ACTH stimulation with vehicle,[2]; 5 μM,-643.5 nmol/L
same,Cortisol percentage change vs ACTH stimulation with vehicle,[2]; 5 μM,(−100%)
same,DHEA absolute change vs ACTH stimulation with vehicle,[2]; 5 μM,<LLQ
same,DHEAS absolute change vs ACTH stimulation with vehicle,[2]; 5 μM,<LLQ
same,Prog absolute change vs ACTH stimulation with vehicle,[2]; 5 μM,+39.86 nmol/l
same,Prog percentage change vs ACTH stimulation with vehicle,[2]; 5 μM,(+1292%)
same,Testosterone absolute change vs ACTH stimulation with vehicle,[2]; 5 μM,-0.4350 nmol/L
same,Testosterone percentage change vs ACTH stimulation with vehicle,[2]; 5 μM,(−85%)
same,11-DOC absolute change vs control,[2]; 0.05 μM,-62.23 nmol/L
same,11-DOC percentage change vs control,[2]; 0.05 μM,(−27%)
same,17-OHP absolute change vs control,[2]; 0.05 μM,+0.6833 nmol/l
same,17-OHP percentage change vs control,[2]; 0.05 μM,(+7.5%)
same,Androstenedione absolute change vs control,[2]; 0.05 μM,-5.850 nmol/L
same,Androstenedione percentage change vs control,[2]; 0.05 μM,(−55%)
same,Corticosterone absolute change vs control,[2]; 0.05 μM,-68.60 nmol/L
same,Corticosterone percentage change vs control,[2]; 0.05 μM,(−32%)
same,Cortisol absolute change vs control,[2]; 0.05 μM,-86.78 nmol/L
same,Cortisol percentage change vs control,[2]; 0.05 μM,(−57%)
same,DHEA absolute change vs control,[2]; 0.05 μM,<LLQ
same,DHEAS absolute change vs control,[2]; 0.05 μM,<LLQ
same,Prog absolute change vs control,[2]; 0.05 μM,+4.475 nmol/l
same,Prog percentage change vs control,[2]; 0.05 μM,(+108%)
same,Testosterone absolute change vs control,[2]; 0.05 μM,-0.1500 nmol/L
same,Testosterone percentage change vs control,[2]; 0.05 μM,(−32%)
same,11-DOC absolute change vs control,[2]; 5 μM,-270.7 nmol/L
same,11-DOC percentage change vs control,[2]; 5 μM,(−98%)
same,17-OHP absolute change vs control,[2]; 5 μM,-15.07 nmol/L
same,17-OHP percentage change vs control,[2]; 5 μM,(−92%)
same,Androstenedione absolute change vs control,[2]; 5 μM,-8.219 nmol/L
same,Androstenedione percentage change vs control,[2]; 5 μM,(−94%)
same,Corticosterone absolute change vs control,[2]; 5 μM,-166.5 nmol/L
same,Corticosterone percentage change vs control,[2]; 5 μM,(−98%)
same,Cortisol absolute change vs control,[2]; 5 μM,-165.2 nmol/L
same,Cortisol percentage change vs control,[2]; 5 μM,(−99%)
same,DHEA absolute change vs control,[2]; 5 μM,<LLQ
same,DHEAS absolute change vs control,[2]; 5 μM,<LLQ
same,Prog absolute change vs control,[2]; 5 μM,+19.89 nmol/l
same,Prog percentage change vs control,[2]; 5 μM,(+537%***)
same,Testosterone absolute change vs control,[2]; 5 μM,-0.2688 nmol/L
same,Testosterone percentage change vs control,[2]; 5 μM,(−66%)
same,total change of steroids,"[2]; EAS associated adrenal hyperplasia no. 1, basal condition",-218.5 nmol/L
same,total sum of change of the steroids: increase,"[2]; EAS associated adrenal hyperplasia no. 1, under ACTH stimulation",124.0 nmol/L
